The numbers were not newly measured in patent US6964965B2, “Substituted pyrazine derivatives” (Pharmacia & Upjohn, priority 2002, dated 2005), which cites them from elsewhere.

The test system of one data set is CRF. The note with it: for effect on the “anxiogenic” effects / actions of CRF in the conflict test: conflict test (operant conflict test).
Data set [1] relates to human epidermal keratinocyte cells. The note with it: cultured human epidermal keratinocyte cells.

As to `CCOC(=O)c1ncn2c1CN(C)C(=O)c1cc(F)ccc1-2` [Ro 15-1788], the “behavioral activity of the substance alone in the operant conflict test” value in the data set with CRF (alone, without CRF) is “without behavioral activity alone”. Besides, the “effect on the “anxiogenic” effects / actions of CRF in the conflict test” value in the data set on CRF is on record as “reversed the effects of CRF in a dose-dependent manner”.
For the compound `CCN(c1nc(C)cc(N2CC=C(c3cccc(F)c3)CC2)n1)c1ccc(C(C)C)cc1SC` [2-[N-(2-methylthio-4-isopropylphenyl)-N-ethylamino]-4-[4-(3-fluorophenyl)-1,2,3,6-tetrahydropyridine-1-yl]-6-methylpyrimidine], the “keratinocyte cell proliferation promoting effect” value in data set [1] is on record as “showed keratinocyte cell proliferation promoting effect”.
In the case of `CNC(=O)c1cc2c(cn1)[nH]c1ccccc12` [FG 7142], the “effect on the “anxiogenic” effects / actions of CRF in the conflict test” value in the data set on CRF is “enhanced the actions of CRF”.
